Experimental findings from publication PMC9047694, “Phenolic Compounds From the Stems and Leaves of Berchemia lineata (L.) DC” (Frontiers in Chemistry, 2022) are described below.

Where only a bound is given, the exact number is not on record here.

The assay has as its target α-glucosidase (Saccharomyces cerevisiae, UniProt P53341). The experiment in a line: α-Glucosidase inhibitory assay. The class given is biochemical. The settings on record: for IC50: 4-nitrophenyl-α-D-glucopyranoside substrate, 37°C, 30 min, absorbance 405 nm, read-out: IC50 (μM), α-glucosidase inhibitory activities; for inhibitory activities against α-glucosidase (in words): conclusion statement. As to the method: IC50 values were calculated from the graph of inhibition percentage against the logarithm of the concentrations of compounds.

Sequence of α-glucosidase (P53341 whole entry): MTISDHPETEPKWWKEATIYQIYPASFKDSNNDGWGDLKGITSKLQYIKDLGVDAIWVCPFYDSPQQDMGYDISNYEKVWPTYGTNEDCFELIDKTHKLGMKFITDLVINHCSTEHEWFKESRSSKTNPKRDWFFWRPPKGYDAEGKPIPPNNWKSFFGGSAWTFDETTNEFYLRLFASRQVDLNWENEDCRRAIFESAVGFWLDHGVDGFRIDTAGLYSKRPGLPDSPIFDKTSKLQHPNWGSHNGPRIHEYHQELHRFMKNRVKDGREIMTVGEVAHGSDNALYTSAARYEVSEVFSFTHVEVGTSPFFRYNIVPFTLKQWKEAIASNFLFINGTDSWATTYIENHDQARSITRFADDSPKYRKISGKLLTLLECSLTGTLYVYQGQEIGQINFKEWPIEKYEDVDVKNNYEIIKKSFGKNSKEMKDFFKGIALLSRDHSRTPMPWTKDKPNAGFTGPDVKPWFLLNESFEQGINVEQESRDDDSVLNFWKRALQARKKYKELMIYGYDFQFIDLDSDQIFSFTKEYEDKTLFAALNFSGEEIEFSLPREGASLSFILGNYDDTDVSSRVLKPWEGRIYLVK

vittarin-B [Compound 9]: the IC50 turned out to be 22.5 µM and the “inhibitory activities against α-glucosidase (in words)” value (“inhibitory activities” below) is “moderate inhibitory activities”.
Consider `COc1cc(O[C@@H]2O[C@H](CO[C@@H]3O[C@@H](C)[C@H](O)[C@@H](O)[C@H]3O)[C@@H](O)[C@H](O)[C@H]2O)c2c(O)c3c(=O)cc(C)oc3cc2c1` [Compound 12, rubrofusarin-6-O-α-L-rhamnosyl-(1→6)-O-β-D-glucopyranside], for which the IC50 was over 50 µM.
Consider `O=c1c(O)c(-c2ccc(O)c(O)c2)oc2cc(O)cc(O)c12` [Compound 14, quercetin], for which the “inhibitory activities” value was “moderate inhibitory activities”.
As to “demethylflavasperone-10-O-β-D-glucopyranoside [Compound 10]”, the IC50 was over 50 µM.
Consider `O=c1c(O)c(-c2ccc(O)cc2)oc2cc(O)cc(O)c12` [Compound 15, kaempferol], for which the “inhibitory activities” value is “moderate inhibitory activities”.
Take `COc1c(O)c(O)cc2c1C(=O)c1c(O)cc(C)cc1C2=O` [Compound 18, 2-hydroxyemodin 1-methyl ether]: the IC50 is over 50 µM.
Turning to `COc1cc(O[C@@H]2O[C@H](CO)[C@@H](O)[C@H](O)[C@H]2O)c2c(O)c3c(=O)cc(C)oc3cc2c1` [Compound 11, rubrofusarin-6-O-β-D-glucopyranoside], the IC50 stood at 28 µM and the “inhibitory activities” value was “moderate inhibitory activities”.
For the molecule `O=C1c2c(O)cc(O)cc2O[C@H](c2ccc(O)cc2)[C@H]1O` [Compound 17, dihydrokaempferol], the “inhibitory activities” value is “moderate inhibitory activities”.
